# Molecular target: StrH (exo-beta-D-N-acetylglucosaminidase) (Streptococcus pneumoniae, UniProt P49610)
# Experiment: SPR (Biacore 8K, CM5 chip, immobilized protein, steady-state affinity)
# Assay type: binding
# StrH (exo-beta-D-N-acetylglucosaminidase), sequence (P49610 626-1064): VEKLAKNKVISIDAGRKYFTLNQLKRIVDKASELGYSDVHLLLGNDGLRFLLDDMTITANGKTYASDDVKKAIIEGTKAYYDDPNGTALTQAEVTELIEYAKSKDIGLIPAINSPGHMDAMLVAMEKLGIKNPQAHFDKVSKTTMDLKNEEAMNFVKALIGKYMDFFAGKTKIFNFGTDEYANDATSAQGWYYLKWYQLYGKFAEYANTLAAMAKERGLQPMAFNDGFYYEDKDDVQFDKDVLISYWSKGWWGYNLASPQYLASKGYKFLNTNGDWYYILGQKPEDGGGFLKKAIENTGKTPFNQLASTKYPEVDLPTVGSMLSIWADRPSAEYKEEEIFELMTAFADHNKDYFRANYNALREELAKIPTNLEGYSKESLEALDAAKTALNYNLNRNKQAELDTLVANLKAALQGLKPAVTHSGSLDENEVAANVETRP
row,Structure (SMILES),Kd [µM]
1,"O=C1c2ccccc2-n2c1nc1ccccc1c2=O [Tryptanthrin, Indolo(2,1-b)quinazoline-6,12-dione]",7.16

# Molecular target: T1, SP_2141 (beta-Hexosaminidase) (Streptococcus pneumoniae, UniProt A0A0H2US73)
# T1 construct: recombinant from PRSP F3983 genomic DNA, pET-28a (+) with N-terminal 6 × His tag
# Experiment: as above
# Assay type: binding
# T1 sequence (A0A0H2US73 entry or part of it): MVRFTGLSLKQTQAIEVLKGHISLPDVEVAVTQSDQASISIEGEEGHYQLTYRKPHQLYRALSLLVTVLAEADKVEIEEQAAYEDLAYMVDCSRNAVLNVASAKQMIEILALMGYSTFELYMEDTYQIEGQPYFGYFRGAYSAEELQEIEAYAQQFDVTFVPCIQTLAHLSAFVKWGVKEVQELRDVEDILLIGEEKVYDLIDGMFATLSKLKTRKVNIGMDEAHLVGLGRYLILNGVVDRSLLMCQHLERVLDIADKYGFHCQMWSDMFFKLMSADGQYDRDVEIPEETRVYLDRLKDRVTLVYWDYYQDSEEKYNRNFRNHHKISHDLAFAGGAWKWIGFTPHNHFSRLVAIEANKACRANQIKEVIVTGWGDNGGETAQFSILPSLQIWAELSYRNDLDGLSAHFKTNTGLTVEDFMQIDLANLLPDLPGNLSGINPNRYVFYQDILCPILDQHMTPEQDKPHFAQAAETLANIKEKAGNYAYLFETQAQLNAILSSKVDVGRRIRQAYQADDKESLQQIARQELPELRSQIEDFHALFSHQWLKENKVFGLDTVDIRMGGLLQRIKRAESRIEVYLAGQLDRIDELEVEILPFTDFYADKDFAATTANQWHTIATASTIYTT
row,Structure (SMILES),Kd [µM]
1,"O=C1c2ccccc2-n2c1nc1ccccc1c2=O [Tryptanthrin, Indolo(2,1-b)quinazoline-6,12-dione]",6.43

# Molecular target: T2, SP_2146 (alpha-fucosidase) (Streptococcus pneumoniae, UniProt A0A0H2US78)
# T2 construct: recombinant from PRSP F3983 genomic DNA, pET-28a (+) with N-terminal 6 × His tag
# Experiment: as above
# Assay type: binding
# T2 sequence (A0A0H2US78 entry or part of it): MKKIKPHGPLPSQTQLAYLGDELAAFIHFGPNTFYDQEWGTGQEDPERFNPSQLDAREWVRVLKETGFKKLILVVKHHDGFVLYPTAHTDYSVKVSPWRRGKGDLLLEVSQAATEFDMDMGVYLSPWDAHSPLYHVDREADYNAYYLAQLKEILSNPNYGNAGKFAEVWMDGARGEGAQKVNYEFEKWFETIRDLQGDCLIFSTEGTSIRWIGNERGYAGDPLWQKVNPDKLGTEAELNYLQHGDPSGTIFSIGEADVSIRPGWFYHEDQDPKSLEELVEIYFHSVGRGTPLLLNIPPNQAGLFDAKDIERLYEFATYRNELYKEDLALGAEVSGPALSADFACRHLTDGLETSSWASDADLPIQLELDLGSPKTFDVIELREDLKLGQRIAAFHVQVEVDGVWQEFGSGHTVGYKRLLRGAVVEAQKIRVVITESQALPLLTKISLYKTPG
row,Structure (SMILES),Kd [µM]
1,"O=C1c2ccccc2-n2c1nc1ccccc1c2=O [Tryptanthrin, Indolo(2,1-b)quinazoline-6,12-dione]",8.82

# Tested on: T3, Streptococcus pneumoniae PRSP F3983
# T3 construct: F3983 (penicillin-resistant)
# Experiment: microbe, parasite or virus in culture
# Set-up: MIC test of isolated compounds on penicillin-resistant Streptococcus pneumoniae F3983
# From the text: 2.4.2. MIC Tests for the Isolated 23 Chemical Compounds on the PRSP F3983 The following supporting information can be downloaded at: https://www.mdpi.com/article/10.3390/ph16010105/s1; Table S1: Proteome_data sheet; Table S2: UPLC-UV-ESI-Q-TOF/MS analysis of S. cusia leaves; Table S3: NMR of 23 isolated compounds and their MICs against PRSP [69, 70, 71, 72, 73, 74, 75, 76, 77, 78, 79, 80, 81, 82, 83, 84, 85, 86, 87, 88, 89, 90, 91]; Table S4: Reverse-docking_active-pockets; Table S5: Reverse-docking_results_Tryptanthrin; Table S6: LMW-Kinetics-affinity_Tryptanthrin; Table S7: Primers and sequences of bgaA, StrH, SP_2141 and SP_2146 of F3983; Table S8: A scheme of Preparation of Isolated Compounds from S. cusia leaves
row,Structure (SMILES),MIC [µg/mL]
1,"CC(=O)C=CC1=C(C)CC(O)CC1(C)C (single isomer, unassigned; (-)) [compound 9, (-)-3-hydroxy-β-ionone]",> 800
2,"CC(=O)/C=C/[C@H]1C(C)=C[C@H](O)CC1(C)C [compound 3, (3R,6R,7E)-3-hydroxy-4,7-megastigmadien-9-one]",400
3,"O=C1Cc2ccccc2N1 [compound 4, 1,3-dihydro-2H-indol-2-one]",400
4,"O=C(O)c1ccc(C(=O)O)[nH]1 [compound 5, 1H-pyrrole-2,5-diacarboxylic acid]",200
5,"CCCCC(CC)COC(=O)c1ccccc1C(=O)OCC(CC)CCCC (stereo not shown) [compound 6, bis(2-ethylhexyl) benzene-1,2-dicarboxylate]",> 800
6,"CC(C)COC(=O)c1ccccc1C(=O)OCC(C)C [compound 7, phthalic acid isodibutyl ester]",> 800
7,"COC(=O)c1ccccc1NC(=O)c1c[nH]c2ccccc12 [compound 8, cephalandole B]",> 800
8,"COc1cc(C(=O)O)ccc1O [compound 10, 4-hydroxy-5-methoxy-benzoic acid]",> 800
9,"CC(=O)C=CC12OC1(C)CC(O)CC2(C)C (stereo not drawn) [compound 11, 3β-hydroxy-5α,6α-epoxy-7-megastigmen-9-one]",400
10,"CC1(C)C[C@H](O)C[C@@]2(C)OC(=O)C=C12 [compound 12, Calendin]",> 800
11,"O=c1c2ccccc2ncn1-c1ccccc1O [compound 13, 3-(2'-hydroxyphenyl)-4(3H)-quinazolinone]",400
12,"O=Cc1c[nH]c2ccccc12 [compound 14, 1H-indole-3-carboxadehyde]",> 800
13,"COc1c(O)cc2oc(-c3ccc(O)cc3)cc(=O)c2c1O [compound 15, hispidulin]",200
14,"O=C1Nc2ccccc2OC1O (stereo not shown) [compound 16, 2-hydroxy-(2H)-1,4-benzoxazin-3(4H)-one]",> 800
15,"CC(O)C(=O)Nc1ccccc1O (stereo not shown) [compound 17, 2-hydroxy-N-(2-hydroxyphenyl)propionamide]",> 800
16,"CC(=O)c1ccc(O)cc1 [compound 19, p-hydroxyacetophenone]",200
17,"O=c1c2ccccc2nc2n1CCC2 [compound 20, deoxyvasicinone]",> 800
18,"NC(=O)c1cccnc1 [compound 21, Nicotinamide]",> 800
19,"CCCCCCCC/C=C\CCCCCCCC(N)=O [compound 23, 9(Z)-octadece-nameid]",> 800

# Source: article PMC9863409, “Combining the In Silico and In Vitro Assays to Identify Strobilanthes cusia Kuntze Bioactives against Penicillin-Resistant Streptococcus pneumoniae” (Pharmaceuticals, 2023)
